Assay results taken from US9566311B2, “Pharmaceutical composition” (Ferring B.V., priority 2010, dated 2017).
Each block holds one molecule with its values, some of them ahead of it. Numbered stars: 1 amine (or outer) side, 2 acyl side, 3 side chain; on linkers, the order of the positions; unused ones are H or OH. Bridge positions count the residues as written; N and C are the ends. Peptide text beside a SMILES is read from it. X1 = O=C(CCC[*:2])[*:1]

Key:
[1] = in vivo, cited from earlier work
[2] = Stability of FE 202767 in various buffers at 40° C./75% RH for one and three months, HPLC; assay type: physicochemical
Protocol: The method was similar to Example 7. FE 202767 (Ferring) was synthesised by the method set out in WO2009/122285. The FE 202767 was dissolved at a concentration of 0.2 mg/ml in either 25 mM citrate buffer (citric acid/Na citrate), 10 mM acetate buffer (acetic acetate/Na acetate) or 10 mM succinate buffer (1 mM succinic acid+NaOH to relevant pH) at varying pH (pH 5.0, 5.2, 5.5, 5.65, 5.8, 6.0), by methods known in the art. As set out in the table below, the various samples also included isotonicity agent (NaCl, 7 mg/mL or mannitol 47 mg/mL) to achieve isotonicity. Some of the samples included […] (methionine 1 mg/mL, EDTA 1 mg/mL, or combination of EDTA 1 mg/mL and methionine 1 mg/mL). Each formulation (see Table below) was filled in a 10R glass vial sealed with a rubber stopper and an aluminium cap.
The solutions were incubated at 40° C. at 75% RH, with samples taken at day 30 (1 month), and day 90 (3 months).
Samples were evaluated by HPLC to determine the amount of intact peptide remaining at the various time points, by methods well known in the art, comparing the % Area of the intact peptide peak on the sampling day vs. % Area on Day 0.
The HPLC method used an Agilent 1100 instrument. The mobile phases where HPLC Buffers A (A=0.1% TFA in water) and B (B=0.1% TFA in acetonitrile) with the gradient 20 to 30% B in 40 min, then 30 to 60% B in 15 min, then 60 to 20% B in 1 min and then 20% B for 10 min at flow rate 0.5 mL/min. The Zorbax 300SB C16, 3.0×150 mm, 3.5 μm, 300 Å column was at temperature 25 with UV detection at 214 nm. The injection volume was 15 μL

[3] = Stability of FE 202767 in citrate and citrate-phosphate buffers at 40° C., intact peptide by HPLC; assay type: physicochemical
Protocol: FE 202767 (Ferring) was synthesised by the method set out in WO2009/122285. FE 202767 was dissolved at a concentration of 0.2 mg/ml in either 25 mM citrate buffer (isotonic to saline) or 25 mM citrate-phosphate buffer (isotonic with saline) at varying pH (pH 5.0, 5.5, 6.0), by methods known in the art. The solutions were incubated at 40° C. for 176 days, with samples taken at day 0, 15, 30, 84, and 176.
Samples were evaluated by HPLC to determine the amount of intact peptide remaining at the various time points, by methods well known in the art, comparing the % Area. of the intact peptide peak on the sampling day vs. % Area on Day 0.
The HPLC method used an Agilent 1200 instrument. […] The Phenomenex MAX-RP C18, 2.0×150 mm, 4 μm, 80 Å column was at temperature 40 with UV detection at 210 nm. The injection volume was 10 μL.

Molecule: CC[C@H](C)[C@@H]1NC(=O)[C@H](Cc2ccc(O)cc2)NC(=O)[C@@H](N)CSSC[C@@H](C(=O)N2CCC[C@H]2C(=O)N[C@@H](CC(C)C)C(=O)NCC(N)=O)NC(=O)[C@H](CC(N)=O)NC(=O)[C@H](CCC(N)=O)NC1=O [oxytocin]
reported half-life [1]: 4 to 10 min

stability (in words) ([2]; citrate and acetate buffers in the pH range tested, after 30 days at 40° C.): good stability | stability (in words) ([2]; citrate and acetate buffers in the pH range tested, after 90 days at 40° C.): good stability | stability (in words) ([2]; succinate buffer at pH 5.0 to 5.65, after 30 days at 40° C.): very stable | stability (in words) ([2]; succinate buffer at pH 5.0 to 5.65, after 90 days at 40° C.): stable | intact peptide remaining ([3]; after 176 days at 40° C. in citrate buffer at pH 5.0 and 5.5): > 95% | intact peptide remaining ([3]; after 176 days at 40° C. in citrate-phosphate buffers, pH 5.0, 5.5 and 6.0, each condition): > 95% | degradation (in words) ([3]; after 176 days at 40° C. in pH 6.0 citrate buffer): significant degradation
Molecule: carba-1-[4-FBzIGly^7]dOT [FE 202767]

Molecule: CC[C@H](C)[C@@H]1NC(=O)[C@H](Cc2ccc(OC)cc2)NC(=O)CCCSC[C@@H](C(=O)N2CCC[C@H]2C(=O)N[C@@H](CC(C)C)C(=O)NCC(N)=O)NC(=O)[C@H](CC(N)=O)NC(=O)[C@H](CCC(N)=O)NC1=O [carbetocin, (1-desamino-1-monocarba-2(O-methyl)-tyrosine)oxytocin] (Y(Me)IQNCPLG-NH2; linker N-5 via X1)
bioavailability ([1]; human, im): 80% | half-life ([1]; human, iv): approximately 40 minutes | half-life relative to the reported half-life of oxytocin ([1]; iv): 4 to 10 times longer | time to peak plasma concentrations [1]: less than thirty minutes
